Measurements as given in paper PMC9186362, “Design and biological evaluation of substituted 5,7-dihydro-6H-indolo[2,3-c]quinolin-6-one as novel selective Haspin inhibitors” (Journal of Enzyme Inhibition and Medicinal Chemistry, 2022).

Experiments:
[1] = design: method as in PMID 22305342; settings: cited from earlier work
[2] = tested on: U-2 OS cells; experiment: Cell cycle analysis by flow cytometry; type: cell-based, human; settings: 1 µM, 24 h
Method: After treatment with the compounds, cells were trypsinized and washed once in PBS. Cells were fixed for 1 h in ice-cold 70% ethanol, then washed once in PBS, centrifuged at 200 g and resuspended in a PBS buffer containing 100 µg/ml RNase A (Thermo Scientific) and 40 µg/ml propidium iodide (Life Technologies). DNA content was determined using a flow cytometer Attune^TM NxT (Thermofisher) and ten thousand events were collected in each run. The data were analysed using FCS Express 7 Pro software (De Novo).

Structure (SMILES) | Stability in basic media [1] | % of cycling cells G2/M ([2]; DMSO control 6%) [%] | % of cycling cells S ([2]; DMSO control 44%) [%] | % of cycling cells G1 ([2]; DMSO control 50%) [%]
O=c1oc2ccc(O)cc2c2c1[nH]c1cc(O)ccc12 [Compound 1b] | instability in basic media | – | – | –
CCCNc1ccc2ncc(-c3ccc4[nH]ncc4c3)n2n1 [CHR-6494, reference compound] | – | 17 | 38 | 45
O=c1oc2ccc(O)cc2c2c1[nH]c1ccccc12 [Compound 1a] | instability in basic media | – | – | –
